Experimental data: patent publication US20040146538A1, “Pharmaceutical composition for oral use comprising an active principle liable to undergo a large first intestinal passage effect” (Gattefosse Holding, priority 2001, published 2004)

Tested on: human intestinal microsomes
Assay: Stability of simvastatin in human intestinal microsomes (first intestinal passage effect)
Conditions: 1 mg/ml microsomes, 37° C., 12 μmol
Experimental: The test is carried out in vitro using human intestinal microsomes containing:
0.09 nmol/mg of cytochromes P450,
0.77 nmol/min/mg of cytochromes P450 3 A 4.
1 mg/ml of microsomes is then placed in contact:
with a regenerating system having the following composition:
followed by equilibration at 37° C. for 3 minutes.
100 μl aliquots are mixed with a solution of 400 μl of a 50/50 mixture of ice and acetonitrile at 0, 15, 30, 60, 120 and 180 minutes. Testosterone is tested in parallel as control component.
The conditions for carrying out the HPLC are as follows:
The mass spectrometer used is known under the reference PE SCIEX 150.

SMILES: C[C@]12CC[C@H]3[C@@H](CCC4=CC(=O)CC[C@@]43C)[C@@H]1CC[C@@H]2O [TESTOSTERONE, Testosterone]
- Percentage remaining (simvastatin (or testosterone control) remaining, time 0 min): 100%
- Percentage remaining (time 15 min): completely disappeared
- Percentage remaining (time 180 min): 0%
